# Experimental data: ChEMBL document CHEMBL1121788, “Structure-activity studies on narcotic antagonists. 2. N-substituted ethyl 3-(m- or p-hydroxyphenyl) nipecotates” (1981)
# Species on record: Mus musculus
# Assay: Compound was tested for antagonist activity against morphine sulfate by the mouse tail-flick method
# Format: functional
row,Compound,AD50 [µM/kg]
1,Br.CCOC(=O)C1(c2cccc(O)c2)CCCN(C)C1 (configuration not stated),24.4
2,CCCN1CCCC(C(=O)OCC)(c2cccc(O)c2)C1.O=P(O)(O)O (configuration not stated),59.3
3,CCOC(=O)C1(c2ccc(O)cc2)CCCN(CC2CC2)C1.Cl (configuration not stated),>294
4,Br.CCOC(=O)C1(c2ccc(O)cc2)CCCN(C)C1 (configuration not stated),>290
5,C=CCN1CCCC(C(=O)OCC)(c2cccc(O)c2)C1.O=P(O)(O)O (configuration not stated),>92
6,Br.CCOC(=O)C1(c2cccc(O)c2)CCCN(CC2CC2)C1 (configuration not stated),18.8
7,C=CCN1CCCC(C(=O)OCC)(c2ccc(O)cc2)C1.Cl (configuration not stated),>307
8,CCCN1CCCC(C(=O)OCC)(c2ccc(O)cc2)C1.Cl (configuration not stated),140

# Species on record: Mus musculus
# Assay: Analgesic activity in mice by the tail-flick method, activity expressed as ED50
# Format: functional
row,Compound,ED50 [µmol/kg]
1,Br.CCOC(=O)C1(c2cccc(O)c2)CCCN(C)C1 (configuration not stated),> 290

# Species on record: Mus musculus
# Assay: Analgesic activity in mice by the acetic acid writhing assay
# Format: functional
row,Compound,ED50 [µmol/kg]
1,Br.CCOC(=O)C1(c2cccc(O)c2)CCCN(C)C1 (configuration not stated),5.66
2,CCCN1CCCC(C(=O)OCC)(c2cccc(O)c2)C1.O=P(O)(O)O (configuration not stated),5.59
3,CCOC(=O)C1(c2ccc(O)cc2)CCCN(CC2CC2)C1.Cl (configuration not stated),4.65
4,Br.CCOC(=O)C1(c2ccc(O)cc2)CCCN(C)C1 (configuration not stated),22.9
5,C=CCN1CCCC(C(=O)OCC)(c2cccc(O)c2)C1.O=P(O)(O)O (configuration not stated),7.22
6,Br.CCOC(=O)C1(c2cccc(O)c2)CCCN(CC2CC2)C1 (configuration not stated),4
7,CN1CC[C@]23c4c5ccc(O)c4O[C@H]2[C@@H](O)C=C[C@H]3[C@H]1C5 [MORPHINE],0.72
8,C=CCN1CCCC(C(=O)OCC)(c2ccc(O)cc2)C1.Cl (configuration not stated),10.4
9,CCCN1CCCC(C(=O)OCC)(c2ccc(O)cc2)C1.Cl (configuration not stated),62.5

# Species on record: Mus musculus
# Assay: Analgesic activity in mice by the tail-flick method
# Format: functional
row,Compound,ED50 [µmol/kg]
1,CCCN1CCCC(C(=O)OCC)(c2cccc(O)c2)C1.O=P(O)(O)O (configuration not stated),> 91
2,C=CCN1CC[C@]23c4c5ccc(O)c4O[C@H]2C(=O)CC[C@@]3(O)[C@H]1C5 [NALOXONE],0.08
3,CCOC(=O)C1(c2ccc(O)cc2)CCCN(CC2CC2)C1.Cl (configuration not stated),100
4,Br.CCOC(=O)C1(c2ccc(O)cc2)CCCN(C)C1 (configuration not stated),> 290
5,C=CCN1CCCC(C(=O)OCC)(c2cccc(O)c2)C1.O=P(O)(O)O (configuration not stated),> 229
6,Br.CCOC(=O)C1(c2cccc(O)c2)CCCN(CC2CC2)C1 (configuration not stated),68
7,CN1CC[C@]23c4c5ccc(O)c4O[C@H]2[C@@H](O)C=C[C@H]3[C@H]1C5 [MORPHINE],4.9
8,C=CCN1CCCC(C(=O)OCC)(c2ccc(O)cc2)C1.Cl (configuration not stated),> 307
9,CCCN1CCCC(C(=O)OCC)(c2ccc(O)cc2)C1.Cl (configuration not stated),> 305
